Measurements reported in patent EP0745595A1, “3-(3-Aryloxyphenyl)-1-(substituted methyl)-s-triazine-2,4,6-oxo or thiotrione herbicidal agents” (American Cyanamid Company, priority 1995, dated 1996).

Legend:
Type in all cases: in vivo
[1] = test system: TRITICUM AESTIVUM, CV. APOLLO; experiment: Postemergence herbicidal evaluation, TRZAWO (Wheat, Winter, CV. APOLLO)
Procedure: In the tests, seedling plants are grown in jiffy flats for about two weeks. The test compounds are dispersed in 50/50 acetone/water mixtures containing 0.5% TWEEN®20, a polyoxyethylene sorbitan monolaurate surfactant of Atlas Chemical Industries, […] through a spray nozzle operating at 40 psi for a predetermined time. After spraying, the plants are placed on greenhouse benches and are cared for in the usual manner, commensurate with conventional greenhouse practices. From four to five weeks after treatment, the seedling plants are examined and rated according to the rating system set forth below. Where more than one test is involved for a given compound, the data are averaged.
(§1) Plant species employed in these evaluations are reported by header abbreviation, common name and scientific name.
(§2) Results of herbicide evaluation are expressed on a rating scale (0-9). The scale is based upon a visual observation of plant stand, vigor, malformation, size, chlorosis and overall plant appearance as compared with a control.

CHENOPODIUM ALBUM, L. [2] = experiment: Postemergence herbicidal evaluation, CHEAL (Lambsquarters, Common)
Procedure: (§3) In the tests, seedling plants are grown in jiffy flats for about two weeks. The test compounds are dispersed in 50/50 acetone/water mixtures containing 0.5% TWEEN®20, a polyoxyethylene sorbitan monolaurate surfactant of Atlas Chemical Industries, […] to the plants through a spray nozzle operating at 40 psi for a predetermined time. After spraying, the plants are placed on greenhouse benches and are cared for in the usual manner, commensurate with conventional greenhouse practices. From four to five weeks after treatment, the seedling plants are examined and rated according to the rating system set forth below. Where more than one test is involved for a given compound, the data are averaged.
as §1, §2

[3] = test system: ORYZA SATIVA, L. TEBONNET; experiment: Rice tolerance to post-transplant applications under flooded paddy conditions, ORYSAT (Rice, Tebonnet); details: post-transplanted rice
Procedure: as §2
The tolerance of transplanted rice to post-transplanted herbicide applications is determined as follows: two ten-day-old rice seedlings (CV. Tebonnet) are transplanted into a silt loam soil in 32 oz. plastic containers with a diameter of 10.5 cm and no drainage holes. After transplanting the containers are flooded and the water level is maintained at 1.5 to 3 cm above the soil surface. […] The treated containers are placed on greenhouse benches, watered such that the water level is maintained as stated above, and cared for according to normal greenhouse procedures. Three to four weeks after treatment the test is terminated and each container is examined and herbicidal effect rated according to the rating system provided in Example 40. The compounds evaluated are reported by compound number given in Example 40.
Plant species employed in this example are reported by header abbreviation, common name and scientific name.

IPOMOEA SPP. = experiment: Postemergence herbicidal evaluation, IPOSS (Morningglory spp.)
Procedure: as §3, §1, §2

[4] = test system: ECHINOCHLOA CRUS-GALLI, (L) BEAU; experiment: Postemergence herbicidal evaluation, ECHCG (Barnyardgrass); set-up: key to ECHCG rating / Herbicidal effect rating, ECHCG / ECHCG: 0-9 visual rating scale vs untreated control
Procedure: (§4) In the tests, seedling plants are grown in jiffy flats for about two weeks. The test compounds are dispersed in 50/50 acetone/water mixtures containing 0.5% TWEEN®20, a polyoxyethylene sorbitan monolaurate surfactant of Atlas Chemical Industries, in sufficient quantities to provide the equivalent of about 0.125 kg to 0.500 kg per hectare of active compound when applied to the plants through a spray nozzle operating at 40 psi for a predetermined time. After spraying, the plants are placed on greenhouse benches and are cared for in the usual manner, commensurate with conventional greenhouse practices. From four to five weeks after treatment, the seedling plants are examined and rated according to the rating system set forth below. Where more than one test is involved for a given compound, the data are averaged.
as §1, §2

CASSIA OBTUSIFOLIA, L. = experiment: Postemergence herbicidal evaluation, CASOB (Sicklepod); set-up: key to CASOB rating / Herbicidal effect rating, CASOB / CASOB: 0-9 visual rating scale vs untreated control
Procedure: as §4, §1, §2

[5] = test system: ORYZA SATIVA, L. TEBONNET; experiment: Postemergence herbicidal evaluation, ORYSAT (Rice, Tebonnet); set-up: key: 0-9 visual rating scale vs untreated control
Procedure: as §4, §1, §2

ZEA MAYS L. = experiment: Postemergence herbicidal evaluation, ZEAMX (Corn, Field)
Procedure: as §3, §1, §2

[6] = test system: ABUTILON THEOPHRASTI, MEDIC.; experiment: Postemergence herbicidal evaluation, ABUTH (Velvetleaf)
Procedure: as §3, §1, §2

GALIUM APARINE = experiment: Postemergence herbicidal evaluation, GALAP (Galium); set-up: key to GALAP rating / Herbicidal effect rating, GALAP / GALAP: 0-9 visual rating scale vs untreated control
Procedure: as §4, §1, §2

[7] = test system: SETARIA VIRIDIS, (L) BEAU; experiment: Postemergence herbicidal evaluation, SETVI (Foxtail, Green); set-up: key to SETVI rating / Herbicidal effect rating, SETVI / SETVI: 0-9 visual rating scale vs untreated control
Procedure: as §4, §1, §2

CHENOPODIUM ALBUM, L. [8] = experiment: Preemergence herbicidal evaluation, CHEAL (Lambsquarters, Common);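 also: higher means more injury with 8 approaching complete kill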
From the text: as §2
The preemergence herbicidal activity of the test compounds of the present invention is exemplified by the following tests in which the seeds of a variety of monocotyledonous and dicotyledonous plants are separately mixed with potting soil and planted on top of approximately one inch of soil in separate pint cups. […] The treated cups are then placed on greenhouse benches, watered and cared for in accordance with conventional greenhouse procedures. From four to five weeks after treatment, the tests are terminated and each cup is examined and rated according to the rating system provided in Example 40.
The compounds evaluated are reported by compound number given in Example 40.

[9] = test system: AMBROSIA ARTEMISIIFOLIA, L.; experiment: Postemergence herbicidal evaluation, AMBEL (Ragweed, Common)
Procedure: as §3, §1, §2

[10] = test system: GLYCINE MAX(L) MERR. CV. WILLIAMS; experiment: Postemergence herbicidal evaluation, GLXMAW (Soybean, Williams); set-up: key to GLXMAW rating / Herbicidal effect rating, GLXMAW / GLXMAW: 0-9 visual rating scale vs untreated control
Procedure: as §4, §1, §2

In the case of `Cn1c(=O)[nH]c(=O)n(-c2cc(Oc3ccc(C(F)(F)F)cc3Cl)ccc2[N+](=O)[O-])c1=O` [B, reference compound], the “Herbicidal effect rating, TRZAWO” value ([1]; 0.031 kg/ha) is reported as 3.0, the “Herbicidal effect rating, TRZAWO” value ([1]; 0.063 kg/ha) is reported as 3.0 and the “Herbicidal effect rating, TRZAWO” value ([1]; 0.125 kg/ha) is reported as 4.0. The “Herbicidal effect rating, TRZAWO” value ([1]; 0.250 kg/ha) was 4.3, the “Herbicidal effect rating, CHEAL” value (CHENOPODIUM ALBUM, L. [2]; 0.031 kg/ha) was 2.0 and the “Herbicidal effect rating, CHEAL” value (CHENOPODIUM ALBUM, L. [2]; 0.063 kg/ha) was 2.5. For the same compound, the “Herbicidal effect rating, CHEAL” value (CHENOPODIUM ALBUM, L. [2]; 0.125 kg/ha) was 7.0, the “Herbicidal effect rating, CHEAL” value (CHENOPODIUM ALBUM, L. [2]; 0.250 kg/ha) was 4.5 and the ORYSAT ([3]; Rate 0.031 kg/ha) was 2.0. For the same compound, the ORYSAT ([3]; Rate 0.063 kg/ha) was 3.0, the ORYSAT ([3]; Rate 0.125 kg/ha) was 2.5 and the ORYSAT ([3]; Rate 0.250 kg/ha) was 4.5. For the same compound, the “Herbicidal effect rating, IPOSS” value (IPOMOEA SPP.; 0.031 kg/ha) was 8.0, the “Herbicidal effect rating, IPOSS” value (IPOMOEA SPP.; 0.063 kg/ha) was 9.0 and the “Herbicidal effect rating, IPOSS” value (IPOMOEA SPP.; 0.125 kg/ha) was 8.0. For the same compound, the “Herbicidal effect rating, IPOSS” value (IPOMOEA SPP.; 0.250 kg/ha) was 9.0, the “Herbicidal effect rating, ECHCG” value ([4]; 0.031 kg/ha) was 1.0 and the “Herbicidal effect rating, ECHCG” value ([4]; 0.063 kg/ha) was 2.0. For the same compound, the “Herbicidal effect rating, ECHCG” value ([4]; 0.125 kg/ha) was 3.0, the “Herbicidal effect rating, ECHCG” value ([4]; 0.250 kg/ha) was 3.5 and the “Herbicidal effect rating, CASOB” value (CASSIA OBTUSIFOLIA, L.; 0.031 kg/ha) was 3.5. For the same compound, the “Herbicidal effect rating, CASOB” value (CASSIA OBTUSIFOLIA, L.; 0.063 kg/ha) was 4.0, the “Herbicidal effect rating, CASOB” value (CASSIA OBTUSIFOLIA, L.; 0.125 kg/ha) was 8.0 and the “Herbicidal effect rating, CASOB” value (CASSIA OBTUSIFOLIA, L.; 0.250 kg/ha) was 5.5. The “Herbicidal effect rating, ORYSAT” value ([5]; 0.031 kg/ha) was 4.0, the “Herbicidal effect rating, ORYSAT” value ([5]; 0.063 kg/ha) was 4.5 and the “Herbicidal effect rating, ORYSAT” value ([5]; 0.125 kg/ha) was 5.5. For the same compound, the “Herbicidal effect rating, ORYSAT” value ([5]; 0.250 kg/ha) was 5.0, the “Herbicidal effect rating, ZEAMX” value (ZEA MAYS L.; 0.031 kg/ha) was 3.3 and the “Herbicidal effect rating, ZEAMX” value (ZEA MAYS L.; 0.063 kg/ha) was 3.3. For the same compound, the “Herbicidal effect rating, ZEAMX” value (ZEA MAYS L.; 0.125 kg/ha) was 4.5, the “Herbicidal effect rating, ZEAMX” value (ZEA MAYS L.; 0.250 kg/ha) was 4.3 and the “Herbicidal effect rating, ABUTH” value ([6]; 0.031 kg/ha) was 4.5. The “Herbicidal effect rating, ABUTH” value ([6]; 0.063 kg/ha) was 7.0, the “Herbicidal effect rating, ABUTH” value ([6]; 0.125 kg/ha) was 7.0 and the “Herbicidal effect rating, ABUTH” value ([6]; 0.250 kg/ha) was 9.0. The “Herbicidal effect rating, GALAP” value (GALIUM APARINE; 0.031 kg/ha) was 2.0, the “Herbicidal effect rating, GALAP” value (GALIUM APARINE; 0.063 kg/ha) was 2.5 and the “Herbicidal effect rating, GALAP” value (GALIUM APARINE; 0.125 kg/ha) was 7.0. The “Herbicidal effect rating, GALAP” value (GALIUM APARINE; 0.250 kg/ha) was 4.5, the “Herbicidal effect rating, SETVI” value ([7]; 0.031 kg/ha) was 0.5 and the “Herbicidal effect rating, SETVI” value ([7]; 0.063 kg/ha) was 1.0. For the same compound, the “Herbicidal effect rating, SETVI” value ([7]; 0.125 kg/ha) was 0.0, the “Herbicidal effect rating, SETVI” value ([7]; 0.250 kg/ha) was 2.0 and the CHEAL (CHENOPODIUM ALBUM, L. [8]; Rate 0.031 kg/ha) was 4.5. The CHEAL (CHENOPODIUM ALBUM, L. [8]; Rate 0.063 kg/ha) was 4.5, the CHEAL (CHENOPODIUM ALBUM, L. [8]; Rate 0.125 kg/ha) was 4.5 and the CHEAL (CHENOPODIUM ALBUM, L. [8]; Rate 0.250 kg/ha) was 4.5. The “Herbicidal effect rating, AMBEL” value ([9]; 0.031 kg/ha) was 3.0, the “Herbicidal effect rating, AMBEL” value ([9]; 0.063 kg/ha) was 4.5 and the “Herbicidal effect rating, AMBEL” value ([9]; 0.125 kg/ha) was 8.0. For the same compound, the “Herbicidal effect rating, AMBEL” value ([9]; 0.250 kg/ha) was 7.0, the “Herbicidal effect rating, GLXMAW” value ([10]; 0.031 kg/ha) was 3.3 and the “Herbicidal effect rating, GLXMAW” value ([10]; 0.063 kg/ha) was 4.0. The “Herbicidal effect rating, GLXMAW” value ([10]; 0.125 kg/ha) was 4.0 and the “Herbicidal effect rating, GLXMAW” value ([10]; 0.250 kg/ha) was 4.3.
